Data on nine molecules can be found in US20060052409A1, “Therapeutic or preventive agent for nausea/vomiting” (priority 2002, published 2006).

The subject of data set [1] is morphine-induced nausea and vomiting. In words: Morphine-induced nausea and vomiting in beagles. To be noted: male beagles; for Anti-emetic effect of test compounds: dose at which the test compounds inhibited nausea and vomiting due to morphine: test compound i.v. 15 minutes before morphine 0.5 mg/kg i.v., observed for ten minutes. The format is in vivo. How it is done: Male beagles were used for the experiment. Frequencies of nausea and vomiting were visually observed for ten minutes after the administration of morphine.
Morphine (0.5 mg/kg) was intravenously administered into the foreleg of male beagles. […] The test compounds were intravenously administered into the foreleg 15 minutes before the administration of morphine.

Data set [2] relates to nausea and vomiting due to morphine. Particulars: literature report; cited from earlier work.
Data set [3] deals with morphine-induced nausea and vomiting. In words: Morphine-induced nausea and vomiting in ferrets. The class given is in vivo. To be noted: male ferrets; morphine 0.1-3 mg/kg s.c.; observed for one hour. Here is the method: Male ferrets were used for the experiment. Frequencies of nausea and vomiting were visually observed from immediately after the administration of morphine to one hour after the administration.
Morphine (0.1-3 mg/kg) was subcutaneously administered to male ferrets. […] The inhibitory effects of NTI on nausea and vomiting due to morphine were then studied. NTI (5 mg/kg) was subcutaneously administered 30 minutes before the administration of morphine (0.6 mg/kg).

As for `Cn1c2c(c3ccc4c(c31)CCCC4)C[C@@]1(O)[C@H]3Cc4ccc(O)c5c4C1(CCN3CC1CC1)[C@H]2O5` [Compound 4, 17-(cyclopropylmethyl)-6,7-didehydro-4,5α-epoxy-3,14β-dihydroxy-6′,7′-cyclohexeno-1′-methyl-6,7-2′,3′-indolomorphinan], the “Anti-emetic effect of test compounds: dose at which the test compounds inhibited nausea and vomiting due to morphine” value in data set [1] is reported as 3.0 mg/kg.

Consider `C=CCN1CC[C@]23c4c5ccc(O)c4O[C@H]2C(=O)CC[C@@]3(O)[C@H]1C5` [naloxone], for which the “Anti-emetic effect against nausea and vomiting due to morphine” value in data set [2] is listed as “shows anti-emetic effects”.

With `C=CCN(CC=C)[C@@H](Cc1ccc(O)cc1)C(=O)NCC(=O)NCCS[C@@H](Cc1ccccc1)C(=O)N[C@@H](CC(C)C)C(=O)O` [ICI-154129], in data set [2], the “Anti-emetic effect against nausea and vomiting due to morphine” value is on record as “cannot inhibit vomiting due to morphine”.

On to `O=C1/C(=C/c2ccccc2)C[C@@]2(O)[C@H]3Cc4ccc(O)c5c4[C@@]2(CCN3CC2CC2)[C@H]1O5` [Compound 7, 7-benzylidene-17-(cyclopropylmethyl)-4,5α-epoxy-3,14β-dihydroxy-6-oxomorphinan], for which the “Anti-emetic effect of test compounds: dose at which the test compounds inhibited nausea and vomiting due to morphine” value in data set [1] is reported as 1.0 mg/kg.

On to `CN1CC[C@]23c4c5ccc(O)c4O[C@H]2[C@@H](O)C=C[C@H]3[C@H]1C5` [Morphine, morphine, reference compound], for which the “Induction of nausea and vomiting” value is listed as “remarkably induced at lower doses” in data set [3] and “remarkably induced within 5 minutes” in data set [1] (morphine 0.5 mg/kg i.v.).

`Oc1ccc2c3c1O[C@H]1c4nc5ccccc5cc4C[C@@]4(O)[C@@H](C2)N(CC2CC2)CCC314` [Compound 5, 17-(cyclopropylmethyl)-6,7-didehydro-4,5α-epoxy-3,14β-dihydroxy-6,7-2′,3′-quinolinomorphinan]: in data set [1], the “Anti-emetic effect of test compounds: dose at which the test compounds inhibited nausea and vomiting due to morphine” value is on record as 1.0 mg/kg.

As to `Cc1c2c(nc3ccccc13)[C@@H]1Oc3c(O)ccc4c3C13CCN(CC1CC1)[C@H](C4)[C@]3(O)C2` [Compound 6, 17-(cyclopropylmethyl)-6,7-didehydro-4,5α-epoxy-3,14β-dihydroxy-6,7-2′,3′-(4′-methylquinolino)morphinan], the “Anti-emetic effect of test compounds: dose at which the test compounds inhibited nausea and vomiting due to morphine” value in data set [1] is reported as 3.0 mg/kg.

As for `C[S+]([O-])c1cccc2c3c([nH]c12)[C@@H]1Oc2c(O)ccc4c2C12CCN(CC1CC1)[C@H](C4)[C@]2(O)C3` (stereo partly drawn) [Compound 2, 17-(cyclopropylmethyl)-6,7-didehydro-4,5α-epoxy-3,14β-dihydroxy-7′-methylsulfinyl-6,7-2′,3′-indolomorphinan], the “Anti-emetic effect of test compounds: dose at which the test compounds inhibited nausea and vomiting due to morphine” value in data set [1] is 1.0 mg/kg.

For the molecule `Oc1ccc2c3c1O[C@H]1c4c(c5cc(F)cc6c5n4CCC6)C[C@@]4(O)[C@@H](C2)N(CC2CC2)CCC314` [Compound 3, 17-(cyclopropylmethyl)-6,7-didehydro-4,5α-epoxy-3,14β-dihydroxy-1′,7′-trimethylene-5′-fluoro-6,7-2′,3′-indolomorphinan], the “Anti-emetic effect of test compounds: dose at which the test compounds inhibited nausea and vomiting due to morphine” value in data set [1] came to 1.0 mg/kg.
